These results are taken from paper PMC10218704, “A Novel Blood–Brain Barrier-Penetrating and Vascular-Targeting Chimeric Peptide Inhibits Glioma Angiogenesis” (International Journal of Molecular Sciences, 2023).

Ends that are not written are not given here.

The test system of data set [1] is HUVECs. The data set can be described thus: Cell proliferation assay (MTT). The format is cell-based, human. The conditions noted are these: 48 h, VEGF-A165 30 ng/mL, n = 3. How it is done:
The anti-proliferative effect was evaluated by the MTT assay.
Briefly, HUVECs were seeded into 96-well plates (5 × 10^3 cells/well) and allowed to attach overnight. […] Then, 20 µL of MTT solution was added to each well and further cultured for 4 h under dark conditions. After removing the medium, 150 µL of DMSO was added to dissolve formazan crystals. The 96-well plates were shaken at a low speed for 10 min. The absorbance was measured at 490 nm using a Microplate Reader (Bio-Rad 680, Hercules, CA, USA).

Data set [2] has as its system HUVECs. Briefly: Wound healing assay (cell migration). Format: cell-based, human. The note with it: 160 μmol/L; VEGF-A165 30 ng/mL; at 24 h or 48 h after scratch; n = 3. The procedure:
HUVECs were firstly seeded into 6-well culture plates (3 × 10^5 cells/well). Following overnight incubation, the monolayer HUVECs were scraped by pipette tips of 200 μL and washed by cold PBS. […] The cells were incubated for another 48 h. Images were captured at 0 h, 24 h, and 48 h using an inverted microscope. The cell migration rate was counted by the ImageJ software.

Data set [3] concerns HUVECs. The data set can be described thus: Hoechst 33,258 staining (apoptosis). The format is cell-based, human. The note with it: 320 μmol/L; 24 h. The procedure:
HUVECs were seeded into 6-well culture plates (3 × 10^5 cells/well). […] After discarding the supernatant and washing with cold PBS, the cells were fixed in 4% paraformaldehyde and stained with Hoechst 33,258 for 10 min. Then, the cells were washed with cold PBS and observed using an inverted fluorescence microscope.

Another data set has as its system VEGFR-2. Briefly: Western blot, phosphorylation of VEGFR-2. The format is cell-based, human. The note with it: 320 μmol/L; 90 min; VEGF-A165 30 ng/mL; HUVECs; n = 3. The procedure: (§1) For Western blotting analysis, HUVECs were seeded into 6-well culture plates at 3 × 10^5 cells/well and incubated overnight. […] Two control groups (F-12K medium in the absence or presence of VEGF-A165) were set. The cells were washed with cold PBS and lysed with lysis buffer (protease and phosphatase inhibitors) on the ice for 30 min, and then centrifuged at 4 °C for 15 min at 14,000 r/min. The supernatant was collected, and its total protein concentration was determined by the BCA protein assay kit. Equal amounts of proteins were separated by 10% SDS-PAGE gels and transferred to polyvinylidene difluoride (PVDF) membranes. After blocking with 5% non-fat milk for 1 h, the membranes were incubated with specific antibodies at 4 °C overnight. Then, the membranes were washed with TBST (Tris-Buffered Saline with 0.1% Tween 20) and incubated with horseradish peroxidase (HRP)-conjugated secondary antibody for 1 h at room temperature. The proteins on the membranes were visualized with enhanced chemiluminescence agents.

The next data set has as its system PLC-γ. The data set can be described thus: Western blot, phosphorylation of PLC-γ. The note with it: 320 μmol/L, 90 min, VEGF-A165 30 ng/mL, HUVECs, vs control, AT7, TAT, n = 3. The format is cell-based, human. How it is done:
as §1

A further data set deals with ERK1/2. Briefly: Western blot, phosphorylation of ERK1/2. The format is cell-based, human. The conditions noted are these: 320 μmol/L, 90 min, VEGF-A165 30 ng/mL, HUVECs, vs control, AT7, TAT, n = 3. The procedure: as §1
For data set [4], the system named is VEGFR-2 and the above kinases (PLC-γ, ERK1/2, SRC, AKT, FAK). Briefly: Western blot, total expression levels. The note with it: 320 μmol/L; 90 min; VEGF-A165 30 ng/mL; HUVECs; n = 3. Format: cell-based, human. How it is done: as §1
Another data set deals with red blood cells. Briefly: Hemolysis assay. The note with it: 2.5–640 μmol/L; 37 °C, 1 h; 540 nm; mouse red blood cells; n = 3. The procedure: The fresh blood of mice was centrifuged at 2000 r/min for 10 min, and the upper layer of serum was discarded, then mixed with normal saline and centrifuged at 2000 r/min for 10 min, repeated three times, and the supernatant was removed to obtain the lower layer of red blood cells. Then, 1 mL of red blood cells was diluted to 50 mL with normal saline. […] The samples were incubated at 37 °C for 1 h, centrifuged at 2000 r/min for 10 min, and photographed. Light absorption of samples was measured at 540 nm on a microplate reader.
Cell hemolysis rate (%) = (OD experimental group − negative control group)/(OD positive control group − negative control group) × 100%.

Data set [5] deals with intracranial U87-mCherry-luc glioma. Briefly: Glioma distribution and vascular targeting in vivo (FITC fluorescence, CD31 immunostaining). The arrangement: species or system nude mice. The conditions noted are these: 1 h. The text has this: The orthotopic U87-mCherry-luc glioma-bearing nude mice model was firstly established. Female nude mice were anesthetized by isoflurane and fixed on a ventricle stereotaxic instrument. U87-mCherry-luc cells were collected after trypsin digestion and then injected into the right striatum of the brain of nude mice. On the 4th day after the surgery, the bioluminescence of the glioma tissue was detected by the IVIS kinetic imaging system (Lumina II; Caliper, MA, USA). The mice were randomly divided into four groups according to the bioluminescence intensity (n = 3). FITC-AT7, FITC-TAT, and FITC-TAT-AT7 (30 mg/Kg) were injected into mice via the tail vein on day 8. The control group was only injected with normal saline. After 1 h, the mice were sacrificed, and the brains were collected and fixed with 4% paraformaldehyde for 24 h. Then, the fixed brains were dehydrated by 15% and 30% sucrose, successively, frozen with O.C.T. embedding reagent, and then cut into frozen brain tissue slices. Then, sections of slices were incubated with rabbit anti-murine CD31 antibody, followed by treatment with Cy5.5-labeled goat anti-rabbit IgG secondary antibody. The slices were further stained with DAPI for 5 min and observed using a confocal microscope.

In another data set the test system is NRP-1. The arrangement: method as in 2 sources, ref 21 = [21]; PMID 17983687; doi:10.1016/j.peptides.2007.09.013; 21. Starzec A. Ladam P. Vassy R. Badache S. Bouchemal N. Navaza A. du Penhoat C.H. Perret G.Y. Structure-function analysis of the antiangiogenic ATWLPPR peptide inhibiting VEGF (165) binding to neurop ||| ref 36 = [36]; PMID 11327725; doi:10.1006/bbrc.2001.4790; 36. Jia H. Lohr M. Jezequel S. Davis D. Shaikh S. Selwood D. Zachary I. Cysteine-rich and basic domain HIV-1 Tat peptides inhibit angiogenesis and induce endothelial cell apoptosis Biochem. Biophys. R. The note with it: C-terminal LPPR essential; cited from earlier work.

Setting [6] is: FITC-labeled peptide 30 mg/kg, tail vein, n = 3.

For the compound `CC(C)C[C@H](NC(=O)[C@H](Cc1c[nH]c2ccccc12)NC(=O)[C@@H](NC(=O)[C@H](C)NC(=O)[C@H](CS)NC(=O)[C@H](CCCNC(=N)N)NC(=O)[C@H](CCCNC(=N)N)NC(=O)[C@H](CCCNC(=N)N)NC(=O)[C@H](CCC(N)=O)NC(=O)[C@H](CCCNC(=N)N)NC(=O)[C@H](CCCNC(=N)N)NC(=O)[C@H](CCCCN)NC(=O)[C@H](CCCCN)NC(=O)[C@@H](N)CCCNC(=N)N)[C@@H](C)O)C(=O)N1CCC[C@H]1C(=O)N1CCC[C@H]1C(=O)N[C@@H](CCCNC(=N)N)C(=O)O` [TAT-AT7], the “inhibition rate on HUVECs' proliferation” value in the data set on HUVECs [1] (320 μmol/L, MTT, 490 nm) is “more than 50%”. Further, the “inhibition of HUVECs' proliferation” value with HUVECs [1] (20-320 μmol/L, MTT) is on record as “significantly inhibit proliferation of HUVECs in a concentration-dependent manner”. Also, the “inhibition rate compared with AT7, TAT, TAT+AT7” value in the data set on HUVECs [1] (concentration higher than 40 μmol/L) was “significantly higher than that of the AT7, TAT, and TAT+AT7 groups”. Also, the migration rate result with HUVECs [2] was “significantly lower than that of the control, AT7, TAT, and TAT+AT7 groups”. For the same compound, the “number of apoptotic cells (Hoechst 33,258)” value in the data set on HUVECs [3] is “significantly increased compared to the control, AT7, TAT, and TAT+AT7 groups”. Also, the “phosphorylation level of VEGFR-2” value with VEGFR-2 is “reduce the phosphorylation level of VEGFR-2”. Further, in the data set on PLC-γ, the “phosphorylation level of PLC-γ” value is “significantly inhibited the phosphorylation level”. Further, the “phosphorylation level of ERK1/2” value in the data set on ERK1/2 is “significantly inhibited the phosphorylation level”. For the same compound, the “total expression levels of VEGFR-2 and the above kinases” value in [4] is recorded as “no significant effect on the total expression levels”. In the data set with red blood cells, the “hemolysis” value is recorded as “did not cause obvious hemolysis” and the hemolysis rate entry is given as “lower than 5%”. Besides, in data set [5] (setting [6]), the “co-localization with glioma blood vessels (CD31)” value is “obviously co-localized with glioma blood vessels”; the “green (FITC) fluorescence intensity in glioma tissue” value was “significantly higher than that in the AT7 and TAT groups”. In addition, the “accumulation and distribution in the glioma region” value in data set [5] (FITC-labeled peptide, intravenous, discussion) was “higher accumulation and deeper distribution in the glioma region after intravenous injection compared to TAT and TAT+AT7”.

On to ATWLPPR [AT7, ATWLPPR], for which the “effect on VEGF-A165 binding to NRP-1” value in the data set with NRP-1 is “inhibitory effect of AT7 on VEGF-A165 binding to NRP-1”.
